Test results reported in patent publication US4764533A, “Erythro-1,2-1-pentanones” (Klinge Pharma GmbH, priority 1981, dated 1988).

What was measured:
estradiol receptor = target: T1, estradiol receptor (Oryctolagus cuniculus, UniProt G1SML6); assay: Bonding affinity to the estradiol receptor (displacement of (^3 H) estradiol, rabbit uterus cytosol); format: binding, rabbit (New Zealand); details: uterus cytosol of female prepubertal rabbits; 18 hours at 40° C.; 2.5×10^-9 M (^3 H) estradiol; read-out: ED50 (concentration of substance displacing 50% (^3 H) estradiol from the estradiol receptor)
T1 construct: The uterus cytosal of female, prepubertal, white rabbits (New Zealand); from tissue; host or cells: uterus cytosol of female prepubertal New Zealand white rabbits
T1 sequence (G1SML6 1-598): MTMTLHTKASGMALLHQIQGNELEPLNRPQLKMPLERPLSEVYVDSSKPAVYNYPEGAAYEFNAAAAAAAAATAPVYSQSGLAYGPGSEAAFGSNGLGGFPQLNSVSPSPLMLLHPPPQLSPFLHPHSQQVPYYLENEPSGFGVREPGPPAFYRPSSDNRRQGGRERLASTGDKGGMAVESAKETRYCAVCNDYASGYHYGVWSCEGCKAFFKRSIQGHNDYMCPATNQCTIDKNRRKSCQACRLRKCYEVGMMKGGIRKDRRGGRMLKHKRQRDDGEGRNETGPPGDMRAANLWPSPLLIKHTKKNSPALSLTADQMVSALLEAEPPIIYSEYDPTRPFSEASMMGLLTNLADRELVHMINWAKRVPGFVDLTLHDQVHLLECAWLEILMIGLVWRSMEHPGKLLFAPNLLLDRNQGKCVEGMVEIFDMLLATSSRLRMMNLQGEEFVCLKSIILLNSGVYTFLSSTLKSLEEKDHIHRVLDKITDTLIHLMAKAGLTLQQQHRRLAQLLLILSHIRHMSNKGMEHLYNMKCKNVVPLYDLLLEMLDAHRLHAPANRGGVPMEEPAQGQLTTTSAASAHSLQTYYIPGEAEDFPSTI
From the text: The determination of the binding affinity to the estradiol receptor was effected by means of the rabbit uterus cytosol.
The measurement of the bonding affinity to the estradiol receptor was affected by the method of N. Devleeschouwer, G. Leclercq, A. Danguy and J. C.

[1] = system: mammatumors induced by 7,12-dimethylbenz(a)anthracene; assay: Mammatumor inhibiting effect (7,12-dimethylbenz(a)anthracene-induced mammatumors); format: in vivo, rat (female Spraque-Dawley, Hannover strain); details: 3 mg/kg/day, esophageal tube, 28 days, six times per week; 10 animals; control animals valued at 100%
Experimental: The tumor inhibiting action was measured following a four-week treatment with the active ingredient on female rats, with mammatumors induced previously with 7,12-dimethylbenz(a)anthracene.
The tumor inhibiting effect was determined on the model of mammatumors induced by means of 7,12-dimethylbenz(a)anthracene of female Spraque-Dawley rats (Hannover strain), by the method of M. J. Golder (Europ. J. Cancer 11, 571 (1975)) and D. P. Griswold et al. (Cancer Research 26, 2169 (1966)).
The test substance were taken up in a 0.25% agar solution and administered by esophageal tube over a period of 28 days, six times per week. Twice weekly and on the 28th day of the experiment, the number of animals was ascertained and the tumor surface (mm^2 /animal) of the therapy and control animals measured. At the completion of the experiment, the percentage increase of the average tumor surface of the treated animals was determined, compared with the control animals, which were valued at 100%.

uterus = assay: Antiuterotropic effect (modified Dorfman test, uterus weight); format: in vivo, rat (Spraque-Dawley, sexually mature female); details: 3 mg/kg/day, esophageal tube, 21 days, six times per week; 10 animals
Experimental: The measurement of the antiuterotropic action was effected following a three-week treatment with the active ingredient of sexually mature, female rats. […] The antiuterotropic effect was determined by a modified Dorfman test (R. I. Dorfman, "Methods in Hormone Research II" p. 707, Academic Press, New York-London, 1962), on sexually mature female Spraque-Dawley rats. The test compounds were taken up in a 0.25% aqueous agar suspension and administered by esophageal tube over a period of 21 days, six times per week. Following the completion of the experiment, the uterus weight of animals treated with the active ingredient was related to the uterus weight of the control animals, which received only an empty agar suspension.

| IC50 (estradiol receptor) [µM] | Compound | Relative increase of average tumor surface [1] [%] | Weight of uterus compared to control animals (uterus) [%] |
| --- | --- | --- | --- |
| 6 | CC[C@H](c1ccccc1)[C@@H](C(=O)c1ccc(OCCN(C)C)cc1)c1ccccc1 (relative stereo) [Compound 1, erythro-1-(4'-(2-dimethylaminoethoxy)-phenyl)-2,3-diphenyl-1-pentanone] | 53 | – |
| 4 | CC[C@H](c1ccccc1)[C@@H](C(=O)c1ccc(OCCN(CC)CC)cc1)c1ccccc1 (relative stereo) [Compound 2, erythro-1-(4'-(2-diethylaminoethoxy)-phenyl)-2,3-diphenyl-1-pentanone] | – | -54 |
| 6 | CC[C@H](c1ccccc1)[C@@H](C(=O)c1ccc(OCCN2CCCC2)cc1)c1ccccc1 (relative stereo) [Compound 3, erythro-2,3-diphenyl-1-(4'-(2-pyrrolidin-1-yl-ethoxy)-phenyl)-1-pentanone] | – | -36 |
| 2.8 | CC[C@H](c1ccccc1)[C@@H](C(=O)c1ccc(OCCN2CCCCC2)cc1)c1ccccc1 (relative stereo) [Compound 4, erythro-2,3-diphenyl-1-(4'-(2-piperidin-1-yl-ethoxy)-phenyl)-1-pentanone] | – | -28 |
| 4.5 | CC[C@H](c1ccccc1)[C@@H](C(=O)c1ccc(OCCN(C)C)cc1)c1ccc(OC)cc1 (relative stereo) [Compound 5, erythro-1-(4'-(2-dimethylaminoethoxy)-phenyl)-2-(4'-methoxyphenyl)-3-phenyl-1-pentanone] | – | -47 |
| 0.5 | CC[C@H](c1ccccc1)[C@@H](C(=O)c1ccc(OCCN(CC)CC)cc1)c1ccc(OC)cc1 (relative stereo) [Compound 6, erythro-1-(4'-(2-diethylaminoethoxy)-phenyl)-2-(4'-methoxyphenyl)-3-phenyl-1-pentanone] | – | – |
| 1.1 | CC[C@H](c1ccccc1)[C@@H](C(=O)c1ccc(OCCN2CCCC2)cc1)c1ccc(OC)cc1 (relative stereo) [Compound 7, erythro-2-(4'-methoxyphenyl)-3-phenyl-1-(4'-(2-pyrrolidin-1-yl-ethoxy)-phenyl)-1-pentanone] | – | -43 |
| 0.0012 | CC[C@H](c1ccccc1)[C@@H](C(=O)c1ccc(OCCN2CCCCC2)cc1)c1ccc(OC)cc1 (relative stereo) [Compound 8, erythro-2-(4'-methoxyphenyl)-3-phenyl-1-(4'-(2-piperidin-1-yl-ethoxy)-phenyl)-1-pentanone] | – | – |
| 0.0054 | CC[C@H](c1ccccc1)[C@@H](C(=O)c1ccc(OCCN(C)C)cc1)c1ccc(O)cc1 (relative stereo) [Compound 9, erythro-1-(4'-(2-dimethylaminoethoxy)-phenyl)-2-(4'-hydroxyphenyl)-3-phenyl-1-pentanone] | 30 | -54 |
| 0.08 | CC[C@H](c1ccccc1)[C@@H](C(=O)c1ccc(OCCN2CCCC2)cc1)c1ccc(O)cc1 (relative stereo) [Compound 10, erythro-2-(4'-hydroxyphenyl)-3-phenyl-1-(4'-(2-pyrrolidin-1-yl-ethoxy)-phenyl)-1-pentanone] | – | – |
